Assay results: patent US9085576B2 (AMGEN INC., priority 2013, dated 2015)
Counter-ions that a name gives are not always drawn.

Experiments:
[1] = molecular target: Beta Secretase enzyme (BACE) (Homo sapiens (Human), UniProt P56817); assay: In vitro enzymatic BACE FRET assay; assay type: biochemical; conditions: read-out: BACE1 Enzyme assay IC50
Procedure: In Vitro Enzymatic BACE FRET (Fluorescence Resonance Energy Transfer) Assay (Enzyme Assay Data in the Example Table I)
The assay buffer used in this screen is 0.05 M acetate, pH 4.2, 10% DMSO final, 100 uM genapol (which is a nonionic detergent, below its Critical Micelle Concentration). […] This assay is effectively started by the addition of FRET substrate (50 nM) and the combination is incubated for one hour. The FRET assay is terminated with by addition of Tris buffer, which raises the pH to neutrality, and the fluorescence is determined. The FRET substrate is a peptide with commercially available fluorophore and quencher, on opposite sides of the BACE cleavage site.

Cathepsin D (Cat D) = Cathepsin D (Cat D) (Homo sapiens (Human), UniProt P07339); assay: In vitro enzymatic Cathepsin D (Cat D) FRET assay; assay type: biochemical; conditions: read-out: CatD IC50
Sequence of Cathepsin D (Cat D) (P07339 65-412, species assumed): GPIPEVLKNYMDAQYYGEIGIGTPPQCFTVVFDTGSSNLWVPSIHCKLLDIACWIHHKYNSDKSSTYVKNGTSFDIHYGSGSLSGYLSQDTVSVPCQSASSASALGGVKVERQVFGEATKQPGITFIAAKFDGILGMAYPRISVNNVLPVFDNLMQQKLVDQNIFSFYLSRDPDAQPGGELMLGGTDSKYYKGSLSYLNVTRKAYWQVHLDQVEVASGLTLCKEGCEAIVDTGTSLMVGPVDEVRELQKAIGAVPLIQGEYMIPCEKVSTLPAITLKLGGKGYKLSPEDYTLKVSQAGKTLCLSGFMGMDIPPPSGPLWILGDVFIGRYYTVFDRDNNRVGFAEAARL

BACE = BACE (Homo sapiens (Human), UniProt P56817); assay: In vitro BACE cell-based assay (Aβ40 in conditioned medium, sandwich ELISA)
Sequence of BACE (P56817 46-501, species assumed): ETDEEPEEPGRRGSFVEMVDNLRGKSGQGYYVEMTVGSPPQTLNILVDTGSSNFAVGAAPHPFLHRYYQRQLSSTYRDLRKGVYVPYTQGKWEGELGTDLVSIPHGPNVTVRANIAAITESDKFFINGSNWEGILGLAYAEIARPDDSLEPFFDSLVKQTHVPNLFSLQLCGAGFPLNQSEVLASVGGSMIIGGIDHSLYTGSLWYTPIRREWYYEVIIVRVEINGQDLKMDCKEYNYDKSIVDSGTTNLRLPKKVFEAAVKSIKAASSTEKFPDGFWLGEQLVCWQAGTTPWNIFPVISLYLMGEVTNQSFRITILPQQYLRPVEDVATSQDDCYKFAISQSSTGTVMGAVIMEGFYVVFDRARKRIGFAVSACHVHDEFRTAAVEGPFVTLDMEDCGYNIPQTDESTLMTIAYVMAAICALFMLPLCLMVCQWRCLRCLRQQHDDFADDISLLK

Sequence of Beta Secretase enzyme (BACE) (P56817 46-501): as the sequence (P56817 46-501, species assumed) above

| Compound | IC50 [1] [µM] | IC50 (Cathepsin D (Cat D)) [µM] | IC50 (BACE) [µM] |
| --- | --- | --- | --- |
| NC1=N[C@@](c2cc(NC(=O)[C@@H]3CCOC3)ccc2F)(C(F)F)[C@H]2C[C@H]2O1 (mixture of isomers) [Example 253, (R,S)-N-(3-((1R,5S,6R)-3-amino-5-(difluoromethyl)-2-oxa-4-azabicyclo[4.1.0]hept-3-en-5-yl)-4-fluorophenyl) tetrahydrofuran-3-carboxamide] | 34.3 | 188 | > 15.6 |
| CO[C@H](C)C(=O)Nc1ccc(F)c([C@@]2(C(F)F)N=C(N)O[C@@H]3C[C@@H]32)c1 (mixture of isomers) [Example 257, (R,S)-N-(3-((1R,5S,6R)-3-amino-5-(difluoromethyl)-2-oxa-4-azabicyclo[4.1.0]hept-3-en-5-yl)-4-fluorophenyl)-2-methoxypropanamide] | 1.84 | 377 | 2.54 |
| C[C@H](C#N)Oc1ccc(C(=O)Nc2ccc(F)c([C@@]3(C(F)F)N=C(N)O[C@@H]4C[C@@H]43)c2)nc1 (mixture of isomers) [Example 259] | 0.659 | 668 | 0.473 |
| C[C@@H](Nc1ccc(F)c([C@@]2(C(F)F)N=C(N)O[C@@H]3C[C@@H]32)c1)c1ccc(Cl)cn1 (mixture of isomers) [Example 378, (1R,5S,6R)-5-(5-(((R)-1-(5-chloropyridin-2-yl)ethyl)amino)-2-fluorophenyl)-5-(difluoromethyl)-2-oxa-4-azabicyclo[4.1.0]hept-3-en-3-amine and (1R,5S,6R)-5-(5-(((S)-1-(5-chloropyridin-2-yl)ethyl)amino)-2-fluorophenyl)-5-(difluoromethyl)-2-oxa-4-azabicyclo[4.1.0]hept-3-en-3-amine] | 13.8 | 77.4 | 2.13 |
| NC1=N[C@@](c2cc(NC(=O)c3cnc(OCC4CCOC4)cn3)ccc2F)(C(F)F)[C@H]2C[C@H]2O1 (mixture of isomers) [Example 413] | 0.145 | > 400 | 0.865 |
| NC1=N[C@](c2cc(NC(=O)c3ccc(Cl)cn3)ccc2F)(C(F)F)[C@@H]2C[C@@H]2O1 (racemic) [Example 55, N-(3-([1(R,S),5(S,R),6(R,S)]-3-amino-5-(difluoromethyl)-2-oxa-4-azabicyclo[4.1.0]hept-3-en-5-yl)-4-fluorophenyl)-5-chloropicolinamide] | 0.0362 | 860 | 0.0431 |
| COc1cnc(C(=O)Nc2ccc(F)c([C@]3(C(F)F)N=C(N)O[C@H]4C[C@H]43)c2)c(C)n1 (racemic) [Example 58, N-(3-([1(R,S),5(S,R),6(R,S)]-3-amino-5-(difluoromethyl)-2-oxa-4-azabicyclo[4.1.0]hept-3-en-5-yl)-4-fluorophenyl)-5-methoxy-3-methylpyrazine-2-carboxamide] | 0.158 | 822 | 0.179 |
| Cc1c(C(=O)Nc2ccc(F)c([C@]3(C(F)F)N=C(N)O[C@H]4C[C@H]43)c2)nc2ccc(Cl)cn12 (racemic) [Example 61, N-(3-([1(R,S),5(S,R),6(R,S)]-3-amino-5-(difluoromethyl)-2-oxa-4-azabicyclo[4.1.0]hept-3-en-5-yl)-4-fluorophenyl)-6-chloro-3-methylimidazo[1,2-a]pyridine-2-carboxamide] | 0.167 | 1780 | 0.0701 |
| NC1=N[C@](c2cc(NC(=O)c3ccc(Cl)cn3)cnc2F)(C(F)F)[C@@H]2C[C@@H]2O1 (racemic) [Example 73, N-(5-([1(R,S),5(S,R),6(R,S)]-3-amino-5-(difluoromethyl)-2-oxa-4-azabicyclo[4.1.0]hept-3-en-5-yl)-6-fluoropyridin-3-yl)-5-chloropicolinamide] | 0.115 | 274 | 0.331 |
| NC1=N[C@@](c2cc(NC(=O)c3ccc(Cl)cn3)ccc2Cl)(C(F)F)[C@H]2C[C@H]2O1 (racemic) [Example 97, N-(3-(((1R,S), (5S,R), (6R,S))-3-amino-5-(difluoromethyl)-2-oxa-4-azabicyclo[4.1.0]hept-3-en-5-yl)-4-chlorophenyl)-5-chloropicolinamide trifluoroacetate] | 0.0371 | 1280 | 0.0505 |
| N#Cc1ccc(C(=O)Nc2cc(F)c(Cl)c([C@]3(CF)N=C(N)O[C@H]4C[C@H]43)c2)nc1 (racemic) [Example 136, N-(3-((1R/S,5S/R,6R/S)-3-amino-5-(fluoromethyl)-2-oxa-4-4-azabicyclo[4.1.0]hept-3-en-5-yl)-4-chloro-5-fluorophenyl)-5-cyanopicolinamide] | 0.12 | 491 | 0.0214 |
| CSc1c(F)cc(NC(=O)c2ccc(Cl)cn2)cc1[C@@]1(CF)N=C(N)O[C@@H]2C[C@@H]21 (racemic) [Example 141, N-(3-(((1S,R),(5S,R),(6R,S))-3-amino-5-(fluoromethyl)-2-oxa-4-azabicyclo[4.1.0]hept-3-en-5-yl)-5-fluoro-4-(methylthio)phenyl)-5-chloropicolinamide] | > 40 | 655 | > 15.6 |
| COc1cnc(C(=O)Nc2cc(F)c(Cl)c([C@]3(CF)N=C(N)O[C@H]4C[C@H]43)c2)cn1 (racemic) [Example 152, N-(3-([1(S,R),5(R,S),6(S,R)]-3-amino-5-(fluoromethyl)-2-oxa-4-azabicyclo[4.1.0]hept-3-en-5-yl)-4-chloro-5-fluorophenyl)-5-methoxypyrazine-2-carboxamide compound with N-(3-((1S,5R,6S)-3-amino-5-(fluoromethyl)-2-oxa-4-azabicyclo[4.1.0]hept-3-en-5-yl)-4-chloro-5-fluorophenyl)-5-methoxypyrazine-2-carboxamide (1:1)] | 0.128 | 404 | 0.0476 |
| Cc1cc(OC(F)F)cnc1C(=O)Nc1cc(F)c(Cl)c([C@]2(CF)N=C(N)O[C@H]3C[C@H]32)c1 (racemic) [Example 153, N-(3-([1(S,R),5(R,S),6(S, R)]-3-amino-5-(fluoromethyl)-2-oxa-4-azabicyclo[4.1.0]hept-3-en-5-yl)-4-chloro-5-fluorophenyl)-5-(difluoromethoxy)-3-methylpicolinamide compound with N-(3-((1S,5R,6S)-3-amino-5-(fluoromethyl)-2-oxa-4-azabicyclo[4.1.0]hept-3-en-5-yl)-4-chloro-5-fluorophenyl)-5-(difluoromethoxy)-3-methylpicolinamide (1:1)] | 0.143 | 555 | 0.0762 |
| Cc1nc(OCC(F)(F)F)cnc1C(=O)Nc1cc(F)c(Cl)c([C@]2(CF)N=C(N)O[C@H]3C[C@H]32)c1 (racemic) [Example 159, N-(3-([1(S,R),5(R,S),6(S,R)]-3-amino-5-(fluoromethyl)-2-oxa-4-azabicyclo[4.1.0]hept-3-en-5-yl)-4-chloro-5-fluorophenyl)-3-methyl-5-(2,2,2-trifluoroethoxy)pyrazine-2-carboxamide] | 0.226 | 1050 | 0.466 |
| NC1=N[C@](c2cccc(NC(=O)c3ccc(Cl)cn3)c2)(C(F)(F)F)[C@@H]2C[C@@H]2O1 (racemic) [Example 208, N-(3-([1(R,S),5(S,R),6(R,S)]-3-amino-5-(trifluoromethyl)-2-oxa-4-azabicyclo[4.1.0]hept-3-en-5-yl)phenyl)-5-chloropicolinamide] | 0.15 | 489 | 3.64 |
